Experimental data from patent US6706686B2, “Inhibition of histone deacetylase as a treatment for cardiac hypertrophy” (The Regents of the University of Colorado, priority 2001, dated 2004).

Test system: SERCA, α-/β-MyHC, ANP, BNP, cardiac α-actin mRNA in cardiac myocytes
Experiment: Myocyte-specific mRNA expression by RNase protection assay
Format: cell-based, rat
Protocol: FIGS. 1A-C. TSA alters agonist-induced gene repression. Cultured cardiac myocytes were treated with PE (20 μmol/L) or IL-1 (1 ng/mL) for 48 hrs. TSA (30 nmol/L) was added 30 min. prior to treatment with PE or IL-1. Myocyte-specific mRNA expression (SERCA2a (FIG. 1A), αMyHC (FIG. 1B), βMyHC (FIG. 1C) was assayed in 5 μg total RNA by RNase protection assay. Mean data are from 4 cultures, and are presented as % of control after normalization to GAPDH signal.
Cell culture. Ventricular myocytes from one-day-old rats were plated at low density in MEM with 5% calf serum, and studied in serum-free MEM. Cultures were treated with PE (#P6126, Sigma-Aldrich Corp., St. Louis, Mo.), IL-1 (#501-RL, R&D Systems, Minneapolis, Minn.), TSA (#GR-309, BIOMOL Research Laboratories, Inc., Plymouth Meeting, Pa.) or their vehicles (ascorbic acid for PE; bovine serum albumin for IL-1; dimethyl sulfoxide for TSA).
Quantification of myocyte hypertrophy and myocyte-specific mRNA expression. Growth of cultured myocytes was quantified by content of radiolabeled protein after continuous incubation with ^14C-phenylalanine. For evaluation of the myocyte gene program, total RNA was extracted from cells with TRIZol (GIBCO, Carlsbad, Calif.) and used in RNase protection assay with probes for SERCA, α-/β-MyHC, ANP, BNP, and cardiac α-actin. All samples also included glyceraldehyde phosphate dehydrogenase (GAPDH) as an internal control for RNA loading.

## CC(/C=C/C(=O)NO)=C\[C@@H](C)C(=O)c1ccc(N(C)C)cc1 [TSA, Trichostatin A]
IL-1 alone
  αMyHC (so in the source) expression in presence of IL-1 alone: increased αMyHC expression
PE/IL-1 co-treated cells
  IL-1 suppression of PE induction of αMyHC (so in the source): reversed the IL-1 effect
TSA 30 nmol/L, 48 hrs
  basal SERCA2a mRNA expression: increased the basal expression
  basal αMyHC mRNA expression: increased the basal expression
TSA pre-treatment, IL-1
  reversal of αMyHC repression in IL-1 treated (or co-treated) cells: less prominent
TSA pre-treatment, PE
  PE effect on αMyHC expression: nearly complete reversal of the PE effect
TSA pre-treatment, PE 20 μmol/L or IL-1 1 ng/mL
  repression of SERCA expression by hypertrophic stimuli: substantial reversal in the repression of SERCA expression
Any hypertrophic treatment condition
  gene expression of cardiac α-actin, ANP, or BNP: did not affect gene expression
Basal or PE
  basal expression or PE-induction of αMyHC (so in the source): had no effects on either the basal expression or PE-induction
